Calls of active or inactive are those of the source.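 How the source made its calls: active means mean IC50 below 20 µM in each of the two panels, so potent in both; inactive means the rest.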
molecular target: Neuropilin-1 (Homo sapiens) (UniProt O14786); assay: blockers of CendR peptide binding to NRP-1 – biochemical, FP and AlphaScreen panel, dose response (AID 651650); conditions: NRP-1 b1b2 / RPARPAR peptide binding, FP or AlphaScreen; FP, mean of runs
Sequence (O14786 whole entry, looked up): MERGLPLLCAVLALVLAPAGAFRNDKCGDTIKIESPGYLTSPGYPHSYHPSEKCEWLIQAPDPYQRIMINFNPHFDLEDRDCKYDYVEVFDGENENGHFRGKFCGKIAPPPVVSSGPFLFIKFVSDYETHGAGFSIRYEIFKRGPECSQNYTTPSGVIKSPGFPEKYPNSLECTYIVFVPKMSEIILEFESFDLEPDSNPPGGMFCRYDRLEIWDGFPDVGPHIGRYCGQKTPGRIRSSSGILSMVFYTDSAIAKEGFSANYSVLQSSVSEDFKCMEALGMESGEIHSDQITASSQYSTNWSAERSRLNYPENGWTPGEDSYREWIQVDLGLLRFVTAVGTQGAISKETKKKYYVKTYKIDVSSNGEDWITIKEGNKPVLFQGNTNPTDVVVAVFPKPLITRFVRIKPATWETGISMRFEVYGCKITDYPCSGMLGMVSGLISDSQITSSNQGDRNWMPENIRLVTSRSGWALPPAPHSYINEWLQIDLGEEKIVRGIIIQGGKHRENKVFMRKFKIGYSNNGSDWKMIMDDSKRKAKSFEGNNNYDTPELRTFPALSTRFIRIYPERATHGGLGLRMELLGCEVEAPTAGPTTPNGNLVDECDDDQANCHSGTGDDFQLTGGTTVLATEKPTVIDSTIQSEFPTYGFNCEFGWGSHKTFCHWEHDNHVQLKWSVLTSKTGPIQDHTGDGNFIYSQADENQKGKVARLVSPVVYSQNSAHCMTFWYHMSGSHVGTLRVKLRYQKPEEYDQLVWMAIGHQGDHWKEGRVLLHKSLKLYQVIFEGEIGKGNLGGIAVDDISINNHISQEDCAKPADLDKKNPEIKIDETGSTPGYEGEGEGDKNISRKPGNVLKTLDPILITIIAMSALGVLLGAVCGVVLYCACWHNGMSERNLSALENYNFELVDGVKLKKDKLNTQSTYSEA

Structure (SMILES)	IC50
COCCNC(=O)c1cc(-c2ccccc2)nn1CC1CC(c2cccc([N+](=O)[O-])c2)=NO1 (stereo not drawn)	> 95 µM (inactive)
O=S(=O)(c1ccccc1)c1nc(-c2ccc(F)cc2)oc1N1CCOCC1	> 95 µM (inactive)
CCC1=C(OC(=O)N(CC)CC)N2C(=O)OC(=NCC(=O)OC)[C@]2(C)[C@H]2C1=CC[C@H]1C(=O)N(CC)C(=O)[C@H]12	> 95 µM (inactive)
Cc1ccc(Cn2nnnc2CN2CCC(n3nnc4ccccc43)CC2)cc1	> 95 µM (inactive)
Cc1cnccc1CNC(=O)CC1C(=O)NCCN1CC(C)(C)C (stereo not drawn)	> 95 µM (inactive)
O=C(c1ccc(-c2cccc(C(F)(F)F)c2)o1)N1CCCC(C(F)(F)F)C1 (stereo not drawn)	> 95 µM (inactive)
O=C(CSc1nnc(Cc2ccccc2)n1Cc1ccccc1)NCc1ccco1	> 95 µM (inactive)
c1ccc2c(c1)CCCN2Cc1nnnn1CC1CCCO1 (stereo not drawn)	inactive
CCC1Nc2ncnc(N3CCCCC3)c2N(Cc2ccc(C)cc2)C1=O (stereo not drawn)	> 95 µM (inactive)
O=C(O/N=C1/CCSc2ccccc21)c1ccccc1	> 95 µM (inactive)
O=C(COC(=O)c1ccccn1)c1ccc([N+](=O)[O-])cc1	> 95 µM (inactive)
CC(=O)c1ccc(OCC(=O)Nc2nnc(C3CC3)s2)cc1	> 95 µM (inactive)
Cc1ccccc1-c1cnc(C(O)c2ccc(F)c(F)c2)[nH]1 (stereo not drawn)	> 95 µM (inactive)
C=C[C@]12CC[C@H](OC(C)=O)CC1=CCC1C2CC[C@@]2(C)C1CCC21OCCO1 (stereo partly drawn)	> 95 µM (inactive)
CCC1=C(OC(=O)N(CC)CC)N2C(=O)OC(=NCC(=O)OC)[C@]2(Cc2ccccc2)[C@H]2C1=CC[C@H]1C(=O)N(CC(=O)OC)C(=O)[C@H]12	> 95 µM (inactive)
CCc1ccc(OC(=O)CN2C(=O)c3ccccc3C2=O)cc1	> 95 µM (inactive)
CCOC(=O)c1cnc(-c2ccccc2)nc1Oc1ccc(OC)cc1	19.9 µM
CC(=O)C(=Cc1ccc(Cl)cc1)C(=O)c1ccccc1	> 95 µM (inactive)
CSc1ncccc1C(=O)OCC(=O)NC1CCCCC1	> 95 µM (inactive)
CCCCOc1ccc(S(=O)(=O)N2CCN(C)CC2)cc1	> 95 µM (inactive)
Cn1c(SCc2nc3ccccc3s2)nnc1-c1cccs1	> 95 µM (inactive)
CC(Nc1ccc2ccccc2c1)C(=O)N/N=C/c1ccncc1 (stereo not drawn)	> 95 µM (inactive)
Cc1cn([C@H]2C[C@H](O)[C@@H](CCC(=O)NCCc3ccc4ccccc4c3)O2)c(=O)[nH]c1=O	> 95 µM (inactive)

same assay, conditions: NRP-1 b1b2 / RPARPAR peptide binding, FP or AlphaScreen; FP, run 1; individual panel run IC50

Structure (SMILES)	IC50 [µM]
CC(C)C[C@@H](COc1ccccc1)N1CCN(CCc2ccccc2)CCC1=O	> 95
CCCc1c(O)c2ccccc2[nH]c1=O	> 95
COc1ccc(Nc2nc(-c3cccnc3)nc3ccccc23)cn1	> 95
c1ccc2c(CNc3ccc(CNc4ncn[nH]4)cc3)cccc2c1	> 95
COc1ccccc1N1CCN(C(=O)C2c3ccccc3Oc3ccccc32)CC1	> 95
COC/C=C/C1=CC2=CC(=O)C(C)(OC(=O)c3cnc4ccccc4n3)C(=O)C2=CN1Cc1ccc(OC)cc1 (stereo not drawn)	> 95
O=C(Nc1ccc(F)cc1)c1cc(S(=O)(=O)Nc2ccc(F)cc2)cs1	> 95
C=C1CCN([C@@H](CC(C)C)C(=O)NCCC(C)C)S(=O)(=O)c2ccccc21	> 95
C=CCC1(CC=C)CCCN1C(=O)c1cc(COc2cccc(OC)c2)on1	> 95
O=C(CSC1CN(C(c2ccccc2)c2ccccc2)C1)N/N=C/c1ccccc1	> 95
CSc1cccc(CN2CCN(Cc3ccccc3)C(CCO)C2)c1 (stereo not drawn)	> 95
NS(=O)(=O)c1cccnc1Nc1cccc(Cl)c1Cl	> 95
OCCC1CCCCN1CC(O)COCc1ccc(Cl)cc1 (stereo not drawn)	> 95
COC(=O)C1N[C@@H]([C@@H](NC(=O)COc2ccccc2)C(=O)NCc2ccccc2)SC1(C)C (stereo partly drawn)	> 95
COc1ccc(C(O)c2nc(-c3ccc4ccccc4c3)cs2)cc1 (stereo not drawn)	> 95
CCOC(=O)C1=C(O)C(=O)N(c2ccccc2)C1c1cccc([N+](=O)[O-])c1 (stereo not drawn)	> 95
CN1CCC(=NNC(=O)c2ccco2)CC1	> 95
Cn1c(=O)c2[nH]c(COc3ccccc3)nc2n(C)c1=O	> 95
O=S1(=O)CCOC[C@H](Cc2ccccc2)N1Cc1ccccc1F	> 95
COc1ccccc1C(=O)NC(=O)CSc1nncn1C	> 95
COc1ccc(N(CC(=O)NCc2ccco2)C(=O)CCC(=O)Nc2ccccn2)cc1	> 95
CC(=O)Nc1cccc(-c2csc(NCc3ccccc3)n2)c1	> 95
COCCNC(=O)c1cc(-c2ccccc2)nn1CC1CC(c2cccc([N+](=O)[O-])c2)=NO1 (stereo not drawn)	> 95

Structure (SMILES)	IC50 [µM]
O=S(=O)(c1ccccc1)c1nc(-c2ccc(F)cc2)oc1N1CCOCC1	> 95
CCC1=C(OC(=O)N(CC)CC)N2C(=O)OC(=NCC(=O)OC)[C@]2(C)[C@H]2C1=CC[C@H]1C(=O)N(CC)C(=O)[C@H]12	> 95
Cc1ccc(Cn2nnnc2CN2CCC(n3nnc4ccccc43)CC2)cc1	> 95
Cc1cnccc1CNC(=O)CC1C(=O)NCCN1CC(C)(C)C (stereo not drawn)	> 95
O=C(c1ccc(-c2cccc(C(F)(F)F)c2)o1)N1CCCC(C(F)(F)F)C1 (stereo not drawn)	> 95
O=C(CSc1nnc(Cc2ccccc2)n1Cc1ccccc1)NCc1ccco1	> 95
c1ccc2c(c1)CCCN2Cc1nnnn1CC1CCCO1 (stereo not drawn)	33.9
CCC1Nc2ncnc(N3CCCCC3)c2N(Cc2ccc(C)cc2)C1=O (stereo not drawn)	> 95
O=C(O/N=C1/CCSc2ccccc21)c1ccccc1	> 95
O=C(COC(=O)c1ccccn1)c1ccc([N+](=O)[O-])cc1	> 95
CC(=O)c1ccc(OCC(=O)Nc2nnc(C3CC3)s2)cc1	> 95
Cc1ccccc1-c1cnc(C(O)c2ccc(F)c(F)c2)[nH]1 (stereo not drawn)	> 95
C=C[C@]12CC[C@H](OC(C)=O)CC1=CCC1C2CC[C@@]2(C)C1CCC21OCCO1 (stereo partly drawn)	> 95
CCC1=C(OC(=O)N(CC)CC)N2C(=O)OC(=NCC(=O)OC)[C@]2(Cc2ccccc2)[C@H]2C1=CC[C@H]1C(=O)N(CC(=O)OC)C(=O)[C@H]12	> 95
CCc1ccc(OC(=O)CN2C(=O)c3ccccc3C2=O)cc1	> 95
CCOC(=O)c1cnc(-c2ccccc2)nc1Oc1ccc(OC)cc1	17.9
CC(=O)C(=Cc1ccc(Cl)cc1)C(=O)c1ccccc1	> 95
CSc1ncccc1C(=O)OCC(=O)NC1CCCCC1	> 95
CCCCOc1ccc(S(=O)(=O)N2CCN(C)CC2)cc1	> 95
Cn1c(SCc2nc3ccccc3s2)nnc1-c1cccs1	> 95
CC(Nc1ccc2ccccc2c1)C(=O)N/N=C/c1ccncc1 (stereo not drawn)	> 95
Cc1cn([C@H]2C[C@H](O)[C@@H](CCC(=O)NCCc3ccc4ccccc4c3)O2)c(=O)[nH]c1=O	> 95

same assay, conditions: NRP-1 b1b2 / RPARPAR peptide binding, FP or AlphaScreen; FP, run 2; individual panel run IC50

Structure (SMILES)	IC50 [µM]
CC(C)C[C@@H](COc1ccccc1)N1CCN(CCc2ccccc2)CCC1=O	> 95
CCCc1c(O)c2ccccc2[nH]c1=O	> 95
COc1ccc(Nc2nc(-c3cccnc3)nc3ccccc23)cn1	> 95
c1ccc2c(CNc3ccc(CNc4ncn[nH]4)cc3)cccc2c1	> 95
COc1ccccc1N1CCN(C(=O)C2c3ccccc3Oc3ccccc32)CC1	> 95
COC/C=C/C1=CC2=CC(=O)C(C)(OC(=O)c3cnc4ccccc4n3)C(=O)C2=CN1Cc1ccc(OC)cc1 (stereo not drawn)	> 95
O=C(Nc1ccc(F)cc1)c1cc(S(=O)(=O)Nc2ccc(F)cc2)cs1	> 95
C=C1CCN([C@@H](CC(C)C)C(=O)NCCC(C)C)S(=O)(=O)c2ccccc21	> 95
C=CCC1(CC=C)CCCN1C(=O)c1cc(COc2cccc(OC)c2)on1	> 95
O=C(CSC1CN(C(c2ccccc2)c2ccccc2)C1)N/N=C/c1ccccc1	> 95
CSc1cccc(CN2CCN(Cc3ccccc3)C(CCO)C2)c1 (stereo not drawn)	> 95
NS(=O)(=O)c1cccnc1Nc1cccc(Cl)c1Cl	> 95
OCCC1CCCCN1CC(O)COCc1ccc(Cl)cc1 (stereo not drawn)	> 95
COC(=O)C1N[C@@H]([C@@H](NC(=O)COc2ccccc2)C(=O)NCc2ccccc2)SC1(C)C (stereo partly drawn)	> 95
COc1ccc(C(O)c2nc(-c3ccc4ccccc4c3)cs2)cc1 (stereo not drawn)	> 95
CCOC(=O)C1=C(O)C(=O)N(c2ccccc2)C1c1cccc([N+](=O)[O-])c1 (stereo not drawn)	> 95
CN1CCC(=NNC(=O)c2ccco2)CC1	> 95
Cn1c(=O)c2[nH]c(COc3ccccc3)nc2n(C)c1=O	> 95
O=S1(=O)CCOC[C@H](Cc2ccccc2)N1Cc1ccccc1F	> 95
COc1ccccc1C(=O)NC(=O)CSc1nncn1C	> 95
COc1ccc(N(CC(=O)NCc2ccco2)C(=O)CCC(=O)Nc2ccccn2)cc1	> 95
CC(=O)Nc1cccc(-c2csc(NCc3ccccc3)n2)c1	> 95
COCCNC(=O)c1cc(-c2ccccc2)nn1CC1CC(c2cccc([N+](=O)[O-])c2)=NO1 (stereo not drawn)	> 95

Structure (SMILES)	IC50 [µM]
O=S(=O)(c1ccccc1)c1nc(-c2ccc(F)cc2)oc1N1CCOCC1	> 95
CCC1=C(OC(=O)N(CC)CC)N2C(=O)OC(=NCC(=O)OC)[C@]2(C)[C@H]2C1=CC[C@H]1C(=O)N(CC)C(=O)[C@H]12	> 95
Cc1ccc(Cn2nnnc2CN2CCC(n3nnc4ccccc43)CC2)cc1	> 95
Cc1cnccc1CNC(=O)CC1C(=O)NCCN1CC(C)(C)C (stereo not drawn)	> 95
O=C(c1ccc(-c2cccc(C(F)(F)F)c2)o1)N1CCCC(C(F)(F)F)C1 (stereo not drawn)	> 95
O=C(CSc1nnc(Cc2ccccc2)n1Cc1ccccc1)NCc1ccco1	> 95
c1ccc2c(c1)CCCN2Cc1nnnn1CC1CCCO1 (stereo not drawn)	> 95
CCC1Nc2ncnc(N3CCCCC3)c2N(Cc2ccc(C)cc2)C1=O (stereo not drawn)	> 95
O=C(O/N=C1/CCSc2ccccc21)c1ccccc1	> 95
O=C(COC(=O)c1ccccn1)c1ccc([N+](=O)[O-])cc1	> 95
CC(=O)c1ccc(OCC(=O)Nc2nnc(C3CC3)s2)cc1	> 95
Cc1ccccc1-c1cnc(C(O)c2ccc(F)c(F)c2)[nH]1 (stereo not drawn)	> 95
C=C[C@]12CC[C@H](OC(C)=O)CC1=CCC1C2CC[C@@]2(C)C1CCC21OCCO1 (stereo partly drawn)	> 95
CCC1=C(OC(=O)N(CC)CC)N2C(=O)OC(=NCC(=O)OC)[C@]2(Cc2ccccc2)[C@H]2C1=CC[C@H]1C(=O)N(CC(=O)OC)C(=O)[C@H]12	> 95
CCc1ccc(OC(=O)CN2C(=O)c3ccccc3C2=O)cc1	> 95
CCOC(=O)c1cnc(-c2ccccc2)nc1Oc1ccc(OC)cc1	21.8
CC(=O)C(=Cc1ccc(Cl)cc1)C(=O)c1ccccc1	> 95
CSc1ncccc1C(=O)OCC(=O)NC1CCCCC1	> 95
CCCCOc1ccc(S(=O)(=O)N2CCN(C)CC2)cc1	> 95
Cn1c(SCc2nc3ccccc3s2)nnc1-c1cccs1	> 95
CC(Nc1ccc2ccccc2c1)C(=O)N/N=C/c1ccncc1 (stereo not drawn)	> 95
Cc1cn([C@H]2C[C@H](O)[C@@H](CCC(=O)NCCc3ccc4ccccc4c3)O2)c(=O)[nH]c1=O	> 95

From PubChem BioAssay AID651650 (Sanford-Burnham Center for Chemical Genomics, 2012)
